Patent US20250090466A1, “DRUG DELIVERY COMPOSITIONS AND DEVICES” (Ohio State Innovation Foundation, priority 2022, published 2025)

Tests used:
[1] = assumed input value, ref (20); cited from earlier work
[2] = Rose Bengal release from dense PCL capsules with silicone oil carriers into PBS; assay type: physicochemical; conditions: Silikon 1000 in dense PCL capsule

- dissolution of Rose Bengal in hydrophobic silicone oil [2]: never dissolves in the oil
Compound: O=C([O-])c1c(Cl)c(Cl)c(Cl)c(Cl)c1-c1c2cc(I)c(=O)c(I)c-2oc2c(I)c([O-])c(I)cc12.[Na+].[Na+] [Rose Bengal, Rose Bengal sodium salt]
- RB diffusivity in PBS [1]: 4.8×10^−10 m^2 s^−1
